What was measured:
Staphylococcus aureus = assay: Zones of inhibition analysis of nitrile rubber film swatches on seeded agar; type: cell-based; conditions: for antibacterial properties of polymer film (in words): incorporated into the nitrile rubber latex dip bath; for sides of the film exhibiting antibacterial activity (in words): PHMB in coagulation layer, triclosan in nitrile rubber
Method: Tests were carried out in order to assess which combination of biocidal agents were compatible with the glove manufacturing process and gave the best antimicrobial performance. Small rectangles of nitrile rubber latex were prepared by dipping clean microscope slides into warm coagulant solution, withdrawing them and drying them in an oven at 110° C. The slides were allowed to cool before dipping into the nitrile rubber latex dispersion. They were withdrawn, allowed to drain, and placed in an oven at 110° C. After cooling the layer of cured nitrile rubber was carefully removed from the microscope slide and sent for testing to determine their antimicrobial properties. Active ingredients were incorporated into the coagulant and nitrile polymer latex dispersion as appropriate.
The qualitative measure of their antibacterial performance was carried out by zones of inhibition analysis. The procedure used was for each sample to be assayed against Staphylococcus aureus, a bacterium commonly found on the skin of humans, by comparing their zones of inhibition on an agar preparation.
Seeded agar plates were prepared by adding 0.1 ml of an overnight broth culture into a clean, sterile petri dish, adding approximately 20 ml of an agar preparation that had been sterilised and cooled to 45° C. before use. The selective agar used was Tryptone Soy Agar. The challenge organism was mixed into the agar by gentle swirling to provide a homogeneous suspension. The plates were allowed to set for approximately one hour in a cool dry place.
Swatches of the polymer glove material were cut to approximately 2 cm square and placed on the seeded agar. The petri dishes were then placed in an incubator overnight at 37° C. Migration of the chemicals toxic to the challenge organisms creates a zone around the edge of the swatch where growth of the challenge organism is inhibited. The relative distance of the zone inhibition from the edge of the swatch for each organism gives an indication of the antibacterial efficacy of the products.

[1] = cited from earlier work
[2] = Experiment 3, 1.0% added to coagulant solution
[3] = Experiment 3, added to the calcium containing coagulant solution, agent on one side of the film
[4] = Experiment 4, incorporated into the coagulation layer / coagulant solution
[5] = Experiment 3, 0.1% added to coagulant solution
[6] = Experiment 2, 0.1% added to nitrile rubber
[7] = Experiment 2, 0.1% in nitrile rubber, compared with control sample 12B/088

Compound	ZONE OF INHIBITION (Staphylococcus aureus; [2])	antibacterial performance (in words) (Staphylococcus aureus; [3])	antibacterial performance (in words) (Staphylococcus aureus; [4])	ZONE OF INHIBITION (Staphylococcus aureus; [5])	antibacterial properties of polymer film (in words) (Staphylococcus aureus; Experiment 1)	ZONE OF INHIBITION (Staphylococcus aureus; [6])	antibacterial effectiveness (in words) (Staphylococcus aureus; [7])	sides of the film exhibiting antibacterial activity (in words) (Staphylococcus aureus; Experiment 4)	further results
Cn1sc(Cl)cc1=O [Methylchloroisothiazolinone]	–	–	–	–	–	–	–	–	antibacterial effectiveness (in words) (Staphylococcus aureus; Experiment 3, 0.5%): effective antibacterial agent; ZONE OF INHIBITION (Staphylococcus aureus; Experiment 3, 0.5% added to nitrile rubber): 15 mm
Benzalkonium chloride [BTC 50E]	30 mm	effective antibacterial performance	good results	–	–	–	–	–	ZONE OF INHIBITION (Staphylococcus aureus; Experiment 3, 0.22% added to coagulant solution): 14 mm; ZONE OF INHIBITION (Staphylococcus aureus; Experiment 4, 0.25% added to coagulant solution): 8 mm
[H]/N=C(\N/C(=N/[H])NCCCCCCNC(=N)NC(=N)Nc1ccc(Cl)cc1)Nc1ccc(Cl)cc1 [Chlorhexidine]	18 mm	effective antibacterial performance	–	11 mm	–	–	–	–	–
Oc1cc(Cl)ccc1Oc1ccc(Cl)cc1Cl [Triclosan]	–	exhibited antibacterial performance but was not as effective as when it was incorporated into the nitrile rubber layer	–	10 mm	exhibited antibacterial properties	20 mm	significantly more effective	both sides of the film exhibit antibacterial activity	ZONE OF INHIBITION (Staphylococcus aureus; Experiment 1, 0.05% added to nitrile rubber): 15 mm; ZONE OF INHIBITION (Staphylococcus aureus; Experiment 2, 0.25% added to nitrile rubber): 18 mm; ZONE OF INHIBITION (Staphylococcus aureus; Experiment 3, 0.05% added to nitrile rubber): 12 mm; antibacterial effectiveness (in words) (Staphylococcus aureus; Experiment 3, 0.05% in the nitrile rubber film (run 12C/064)): effective; ZONE OF INHIBITION (Staphylococcus aureus; Experiment 3, 0.1% added to nitrile rubber): 17 mm; ZONE OF INHIBITION (Staphylococcus aureus; Experiment 3, 0.5% added to coagulant solution): 12 mm; ZONE OF INHIBITION (Staphylococcus aureus; Experiment 4, 0.1% added to nitrile rubber): 16 mm; antibacterial performance (in words) (Staphylococcus aureus; Experiment 4, incorporated into the nitrile rubber): good antibacterial performance; solubility in water [1]: 0.0012 g per liter
O=c1[nH]sc2ccccc12 [Proxel (BIT), 1,2-Benzisothiazol-3((2H)-one]	–	–	–	–	exhibited antibacterial properties	15 mm	significantly more effective	–	ZONE OF INHIBITION (Staphylococcus aureus; Experiment 1, 0.15% added to nitrile rubber): 9 mm
Poly(hexamethylene biguanide) [PHMB]	–	–	good results	–	–	–	–	only one side of the polymer film exhibits antibacterial performance	ZONE OF INHIBITION (Staphylococcus aureus; Experiment 4, 0.3% added to coagulant solution, face down as normal): 16 mm; ZONE OF INHIBITION (Staphylococcus aureus; Experiment 4, 0.3% added to coagulant solution, film placed face up on the agar plate, biocide not on the side on the agar gel): 5 mm

Source: US9352074B2, “Antimicrobial examination gloves” (priority 2013, dated 2016)
